“Also recorded” adds a separate entry of the source.
How the values were obtained:
Panc-1 cells = experiment: Cell Death Detection ELISA, Panc-1; format: cell-based, human; conditions: 3 μM
Experimental: The induction of apoptosis by 3EZ,20Ac-ingenol treatment was examined by detecting histone-binding DNA fragmentation in the cytoplasm using a Cell Death Detection […] kit (Roche Applied Science).
Specifically, Panc-1 cells were inserted into tubes at 5×10^3 cells/well/100 μL, and incubated for 6, 12, 24, 48, and 72 hours in the presence of 3EZ,20Ac-ingenol at a final concentration of 3 μM. Subsequently, the respective cells were lysed in a lysis buffer. Subsequently, the supernatant of cell debris of the respective cells was collected and transferred to an ELISA plate, and an absorbance at a wavelength of 405 nm was measured to measure the induction of apoptosis.

topoisomerase = conditions: cited from earlier work
[1] = system: phosphorylated Akt (Ser^473); experiment: Western blotting, p-Akt (Ser473), BALL-1 cells; format: cell-based, human; conditions: 0.5 μM
Experimental: The effect of 3EZ,20Ac-ingenol treatment on a PI3K/Akt signaling pathway was examined. Specifically, BALL-1 cells, TKG0210 cells, and TKG0377 cells were cultured for 48 hours in the presence of 3EZ,20Ac-ingenol at a final concentration of 0.5 μM, and by Western blotting using an anti-p-Akt (Ser^473) antibody (Cell Signaling Technology), phosphorylation of the 473th serine residue of an Akt protein in respective fractions of the entire cell, a nucleus, and a cytoplasm was analyzed. In addition, cells cultured in the absence of 3EZ,20Ac-ingenol were used as controls.
The effect of 3EZ,20Ac-ingenol treatment on PTEN, p-PTEN, and p-Akt of BALL-1 cells was examined. First, BALL-1 cells were cultured for 3, 6, 12, 24, and 48 hours in the presence of 3EZ,20Ac-ingenol at a final concentration of 0.5 μM, and by Western blotting using an anti-PTEN antibody (Santa Cruz), an anti-p-PTEN (Ser^380/Thr^382/383) antibody (Santa Cruz), and an anti-p-Akt (Ser^473) antibody (Cell Signaling Technology), abundances of PTEN, p-PTEN, and p-Akt in the entire cell fraction were analyzed. In addition, cells cultured in the absence of 3EZ,20Ac-ingenol were used as controls.
BALL-1 cells, TKG0210 cells, and TKG0377 cells were cultured for 24 and 48 hours in the presence of 3EZ,20Ac-ingenol at a final concentration of 0.5 μM, and abundances of p-Akt in the nuclear fraction and the cytoplasm fraction were analyzed by Western blotting. In addition, respective cells cultured in the absence of 3FZ,20Ac-ingenol were used as controls.
The effect of 3EZ,20Ac-ingenol treatment on PTEN and p-Akt was examined using siRNA against PTEN. First, BALL-1 cells were cultured for 12, 24, and 48 hours in the presence of 3EZ,20Ac-ingenol at a final concentration of 0.5 μM, and an abundance of p-Akt was analyzed by Western blotting in the same manner as in Experimental Example 11. Cells cultured in the absence of 3EZ,20Ac-ingenol were used as controls.
Subsequently, siRNA against PTEN (“ON-TARGET Plus Human PTEN (5728) siRNA-SMARTpool,” GE Dharmacon) was introduced into BALL-1 cells at a final concentration of 50 nM and incubated for 48 hours. Subsequently, a cell medium was replaced with a new medium and cultured for 12, 24, and 48 hours in the presence or absence of 3EZ,20Ac-ingenol at a final concentration of 0.5 μM, and by Western blotting using an anti-PTEN antibody (Santa Cruz) and an anti-p-Akt (Ser^473) antibody (Cell Signaling Technology), abundances of PTEN protein and p-Akt were analyzed.

cyclin D1 [2] = experiment: Western blotting, cyclin D1, JeKo-1 cells; format: cell-based, human; conditions: 0.5 μM; for abundance of cyclin D1: cytoplasm fraction
Experimental: (§1) Specifically, first, JeKo-1 cells were cultured for 0 (control), 12, 24, and 48 hours in the presence of 0.5 μM of 3EZ,20Ac-ingenol. In addition, Panc-1 cells were cultured for 0 (control), 12, 24, and 48 hours in the presence of 3 μM of 3EZ,20Ac-ingenol.
(§2) Subsequently, abundances of cyclin D1 in entire cell fractions, nuclear fractions, and cytoplasm fractions of the respective cells were analyzed by Western blotting.

cyclin D1 [3] = experiment: Western blotting, cyclin D1, Panc-1 cells; format: cell-based, human; conditions: 3 μM
Experimental: as §1, §2

DT40 cells = conditions: stop in the G2/M phase; cited from earlier work
p-GSK-3β (Ser^9) = experiment: Western blotting, p-GSK-3β (Ser9), Panc-1 cells; format: cell-based, human; conditions: 3 μM, entire cell
Experimental: as §1
Subsequently, abundances of GSK-3β and p-GSK-3β in the respective cells were analyzed by Western blotting using an anti-GSK-3β antibody (Cell Signaling Technology) and an anti-p-GSK-3β (Ser^9) antibody (Cell Signaling Technology). Furthermore, as a loading control, actin protein was detected using an anti-actin antibody (Sigma).

ATR protein = experiment: Western blotting, ATR protein, BALL-1 cells; format: cell-based, human; conditions: 0.5 μM
Experimental: The effects of 3EZ,20Ac-ingenol treatment on expression of ATR were examined. First, BALL-1 cells were cultured in the presence of 3EZ,20Ac-ingenol at a final concentration of 0.5 μM for 12, 24, and 48 hours, and an expression level of ATR protein was analyzed by Western blotting using an anti-ATR antibody (Santa Cruz). Cells cultured in the absence of 3EZ,20Ac-ingenol were used as controls.
Subsequently, siRNA against ATR (“ON-TARGET Plus Human ATR (545) siRNA-SMARTpool,” GE Dharmacon) was introduced into BALL-1 cells at a final concentration of 50 nM and incubated for 48 hours. Subsequently, a cell medium was replaced with a new medium containing 3EZ,20Ac-ingenol at a final concentration of 0.5 μM and culturing was performed for 12, 24, and 48 hours, and an expression level of ATR protein was analyzed by Western blotting using an anti-ATR antibody (Santa Cruz).
Cells into which control siRNA (“ON-TARGET Plus Nontargeting pool,” GE Dharmacon) was introduced and which were then cultured in the absence of 3EZ,20Ac-ingenol were used as controls.

For `CCCCC/C=C\C=C\C(=O)O[C@H]1C(C)=C[C@]23C(=O)[C@@H](C=C(COC(C)=O)[C@@H](O)[C@]12O)[C@H]1[C@@H](C[C@H]3C)C1(C)C` [3EZ,20Ac-ingenol, 3-O-(2′E,4′Z-decadienoyl)-20-O-acetylingenol], the “DNA fragmentation (apoptosis), onset” value (Panc-1 cells) is listed as “DNA fragmentation started 24 hours after the incubation”, the “amount of fragmented DNA (apoptosis)” value (Panc-1 cells; 48 hours and 72 hours) is listed as “the amount of fragmented DNA further increased” and the DNA cleavage (topoisomerase) is listed as “does not cause DNA cleavage”. For the same molecule, the “abundance of p-Akt” value ([1]; 3 to 48 hours, entire cell fraction) was “down-regulation of p-Akt abundance was observed”, the “abundance of p-Akt” value ([1]; 24 hours after the start of treatment (Experimental Example 16)) was “an abundance of p-Akt in the BALL-1 cells decreased” and the “abundance of p-Akt” value ([1]; 24 hours, nuclear fraction) was “a moderate decrease in abundance of p-Akt was observed”. The “abundance of p-Akt” value ([1]; 48 hours, cytoplasm fraction) was “slightly reduced; also recorded: a slight decrease in abundance of p-Akt was observed”, the “abundance of p-Akt” value ([1]; 48 hours, entire cell) was “a decrease in abundance of phosphorylated Akt” and the “abundance of p-Akt” value ([1]; 48 hours, nuclear fraction) was “significantly decreased; also recorded: a further decrease in abundance of p-Akt”. For the same molecule, the “abundance of p-Akt” value ([1]; cells with siRNA against PTEN introduced, after 12 hours) was “an increase in abundance of p-Akt was observed”, the “abundance of p-Akt” value ([1]; cells with siRNA against PTEN introduced, after 24 hours and 48 hours) was “a decrease in abundance of p-Akt was observed” and the “abundance of cyclin D1” value (cyclin D1 [2]; 12 to 48 hours) was “an increase in abundance of cyclin D1 was recognized”. For the same molecule, the “abundance of cyclin D1” value (cyclin D1 [2]; thereafter) was “a decrease was recognized thereafter”, the “expression level of cyclin D1” value (cyclin D1 [2]; entire cell fraction, 12 to 48 hours) was “a decrease in expression level of cyclin D1 was observed” and the “expression level of cyclin D1” value (cyclin D1 [2]; nuclear fraction, 12 to 48 hours) was “a slight decrease in expression level of cyclin D1 was observed”. The “abundance of cyclin D1” value (cyclin D1 [3]; cytoplasm fraction, 12 to 48 hours) was “an abundance of cyclin D1 decreased”, the “expression level of cyclin D1” value (cyclin D1 [3]; entire cell fraction, 12 to 24 hours) was “temporarily increased” and the “expression level of cyclin D1” value (cyclin D1 [3]; entire cell fraction, after 24 hours) was “then decreased thereafter”. For the same molecule, the “expression level of cyclin D1” value (cyclin D1 [3]; nuclear fraction, 12 hours) was “temporarily increased”, the “expression level of cyclin D1” value (cyclin D1 [3]; nuclear fraction, after 24 hours) was “decreased after 24 hours” and the “cell proliferation of DT40 cells” value (DT40 cells) was “stops cell proliferation of DT40 cells”. For the same molecule, the “p-GSK-3β (an inactive type)” value (p-GSK-3β (Ser^9)) was “a decrease in p-GSK-3β (an inactive type) was observed”, the “expression of ATR” value (ATR protein; cells with siRNA against ATR introduced, 12, 24, 48 hours) was “an increase in ATR expression was not recognized” and the “expression of ATR” value (ATR protein; from 12 hours until 48 hours) was “the expression of ATR increased”.

From patent US11464750B2, “Anticancer agent and use thereof” (priority 2017, dated 2022)
